Measured values reported in US12551570B2, “Compounds comprising cleavable linker and uses thereof” (IntoCell, Inc., priority 2019, dated 2026).

Key:
[1] = Plasma stability test, mouse plasma; type: in vitro ADME; conditions: 37° C., 300 μM
Description: (§1) Compound A-2 or A-3 and MPS used as an internal standard were dissolved in DMSO to achieve a concentration of 60 mM. Then, each of human plasma (Biochemed 752PR-SC-PMG), mouse plasma (Biochemed 029-APSC-MP), rat plasma (Biochemed 031-APSC-MP), and beagle dog plasma (Biochemed 013-APSC-MP) were mixed with the solution of the compound and MPS to achieve a final concentration of 300 μM (final 0.5% DMSO). The resulting plasma mixtures were incubated at 37° C. Aliquots were taken before the reaction and after 1 day, 2 days, 4 days, and 7 days. Each aliquot was 300 μL. To complete the reaction, two-fold volume of acetonitrile was added, followed by brief vortexing and centrifugation for plasma protein precipitation. Each supernatant obtained after centrifugation was collected and analyzed by HPLC. Compounds A-2 and A-3 were detected and quantitated in the mouse and human plasma for up to 7 days (>95%). […] The results of the plasma stability studies are shown in Tables 3 and 4 and FIGS. 6 and 7.

[2] = Plasma stability test, human plasma; type: in vitro ADME; conditions: 37° C., 300 μM
Description: as §1

| SMILES | Remaining Substrate, %, Mouse Plasma ([1]; 0 days) [%] | Remaining Substrate, %, Mouse Plasma ([1]; 1 day) [%] | Remaining Substrate, %, Mouse Plasma ([1]; 2 days) [%] | Remaining Substrate, %, Mouse Plasma ([1]; 4 days) [%] | Remaining Substrate, %, Mouse Plasma ([1]; 7 days) [%] | Remaining Substrate, %, Human Plasma ([2]; 0 days) [%] | Remaining Substrate, %, Human Plasma ([2]; 1 day) [%] | Remaining Substrate, %, Human Plasma ([2]; 2 days) [%] | Remaining Substrate, %, Human Plasma ([2]; 4 days) [%] | Remaining Substrate, %, Human Plasma ([2]; 7 days) [%] |
| --- | --- | --- | --- | --- | --- | --- | --- | --- | --- | --- |
| CC(C)(C)OC(=O)N[C@@H](Cc1ccc(OS(=O)(=NCCOCCOCCOCCN=[N+]=[N-])Oc2ccccc2O[C@@H]2O[C@H](CO)[C@H](O)[C@H](O)[C@H]2O)cc1)C(=O)O (stereo partly drawn) [Compound A-2] | 100 | 102 | 100 | 97 | 95 | 100 | 100 | 104 | 99 | 101 |
| C[N+]1(Cc2ccc(OS(=O)(=NCCOCCOCCOCCN=[N+]=[N-])Oc3ccccc3O[C@@H]3O[C@H](CO)[C@H](O)[C@H](O)[C@H]3O)cc2)CCCC[C@@H]1C(=O)Nc1ccccc1 (stereo partly drawn) [Compound A-3] | 100 | 94 | 90 | – | 92 | 100 | 97 | 98 | – | 99 |
